Experimental data published in the supplement of paper PMC10307832.

Key:
Assay in all cases: relative viability (nuclei count vs DMSO), 5 days (fraction); higher = more cells survive
[1] = system: LOU-NH91
Procedure, shortened: (§1)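 After 5 days of treatment, lung cancer cells in 1536-well plates were fixed and stained in a single step (final 0.05% Triton X-100, 1% formaldehyde, 1 ug/ml Hoechst) and their nuclei counted on 4× images. Treatment had been applied by pin tool the day after seeding as one drug alone or as a fixed anchor-drug dose with five library-drug doses (not always all listed) in √10 steps. Relative viability is the nuclei count of treated wells divided by that of vehicle wells, and values are medians of duplicate plates.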

[2] = system: COR-L23
Procedure, shortened: as §1

[3] = system: HCC-78
Procedure, shortened: as §1

[4] = system: UMC-11
Procedure, shortened: as §1

[5] = system: NCI-H2347
Procedure, shortened: as §1

[6] = system: NCI-H1650
Procedure, shortened: as §1

[7] = system: NCI-H1651
Procedure, shortened: as §1

[8] = system: LCLC-103H
Procedure, shortened: as §1

[9] = system: LCLC-97TM1
Procedure, shortened: as §1

[10] = system: NCI-H647
Procedure, shortened: as §1

[11] = system: RERF-LC-KJ
Procedure, shortened: as §1

[12] = system: A-427
Procedure, shortened: as §1

[13] = system: PC-3 [JPC-3]
Procedure, shortened: as §1

[14] = system: NCI-H838
Procedure, shortened: as §1

[15] = system: HARA
Procedure, shortened: as §1

[16] = system: 201T
Procedure, shortened: as §1

[17] = system: NCI-H2405
Procedure, shortened: as §1

[18] = system: NCI-H520
Procedure, shortened: as §1

[19] = system: LXF-289
Procedure, shortened: as §1

[20] = system: NCI-H23
Procedure, shortened: as §1

Cc1csc(=NC2CCCCC2)n1/N=C/c1ccc(O)c(O)c1O [MIM1] + CC(C)C[C@H](NC(=O)[C@H](Cc1ccccc1)NC(=O)c1cnccn1)B(O)O [Bortezomib] (partner 0.002 µM)
relative viability ([1]; first compound 0.2 µM): 0.462
relative viability ([1]; first compound 0.6325 µM): 0.53
relative viability ([1]; first compound 2 µM): 0.447
relative viability ([1]; first compound 6.325 µM): 0.35
relative viability ([1]; first compound 20 µM): 0.267
relative viability ([2]; first compound 0.2 µM): 1.02
relative viability ([2]; first compound 0.6325 µM): 1.04
relative viability ([2]; first compound 2 µM): 0.969
relative viability ([2]; first compound 6.325 µM): 0.659
relative viability ([2]; first compound 20 µM): 0.418
relative viability ([3]; first compound 0.2 µM): 0.491
relative viability ([3]; first compound 0.6325 µM): 0.555
relative viability ([3]; first compound 2 µM): 0.559
relative viability ([3]; first compound 6.325 µM): 0.418
relative viability ([3]; first compound 20 µM): 0.4
relative viability ([4]; first compound 0.2 µM): 0.646
relative viability ([4]; first compound 0.6325 µM): 0.389
relative viability ([4]; first compound 2 µM): 0.774
relative viability ([4]; first compound 6.325 µM): 0.364
relative viability ([4]; first compound 20 µM): 0.145
relative viability ([5]; first compound 0.2 µM): 0.944
relative viability ([5]; first compound 0.6325 µM): 1.03
relative viability ([5]; first compound 2 µM): 0.939
relative viability ([5]; first compound 6.325 µM): 0.798
relative viability ([5]; first compound 20 µM): 0.578
relative viability ([6]; first compound 0.2 µM): 0.263
relative viability ([6]; first compound 0.6325 µM): 0.204
relative viability ([6]; first compound 2 µM): 0.188
relative viability ([6]; first compound 6.325 µM): 0.212
relative viability ([6]; first compound 20 µM): 0.165
relative viability ([7]; first compound 0.2 µM): 0.92
relative viability ([7]; first compound 0.6325 µM): 0.823
relative viability ([7]; first compound 2 µM): 0.875
relative viability ([7]; first compound 6.325 µM): 0.887
relative viability ([7]; first compound 20 µM): 0.685
relative viability ([8]; first compound 0.2 µM): 0.974
relative viability ([8]; first compound 0.6325 µM): 0.959
relative viability ([8]; first compound 2 µM): 1.05
relative viability ([8]; first compound 6.325 µM): 0.955
relative viability ([8]; first compound 20 µM): 0.938
relative viability ([9]; first compound 0.2 µM): 0.66
relative viability ([9]; first compound 0.6325 µM): 0.811
relative viability ([9]; first compound 2 µM): 0.214
relative viability ([9]; first compound 6.325 µM): 0.346
relative viability ([9]; first compound 20 µM): 0.0592
relative viability ([10]; first compound 0.2 µM): 1.05
relative viability ([10]; first compound 0.6325 µM): 0.878
relative viability ([10]; first compound 2 µM): 0.98
relative viability ([10]; first compound 6.325 µM): 0.769
relative viability ([10]; first compound 20 µM): 0.237
relative viability ([11]; first compound 0.2 µM): 1.08
relative viability ([11]; first compound 0.6325 µM): 1.29
relative viability ([11]; first compound 2 µM): 0.852
relative viability ([11]; first compound 6.325 µM): 0.601
relative viability ([11]; first compound 20 µM): 0.264
relative viability ([12]; first compound 0.2 µM): 0.975
relative viability ([12]; first compound 0.6325 µM): 0.865
relative viability ([12]; first compound 2 µM): 0.972
relative viability ([12]; first compound 6.325 µM): 0.847
relative viability ([12]; first compound 20 µM): 0.234
relative viability ([13]; first compound 0.2 µM): 0.862
relative viability ([13]; first compound 0.6325 µM): 0.7
relative viability ([13]; first compound 2 µM): 0.77
relative viability ([13]; first compound 6.325 µM): 0.703
relative viability ([13]; first compound 20 µM): 0.496
relative viability ([14]; first compound 0.2 µM): 0.869
relative viability ([14]; first compound 0.6325 µM): 0.808
relative viability ([14]; first compound 2 µM): 0.78
relative viability ([14]; first compound 6.325 µM): 0.53
relative viability ([14]; first compound 20 µM): 0.136
relative viability ([15]; first compound 0.2 µM): 1.09
relative viability ([15]; first compound 0.6325 µM): 1.1
relative viability ([15]; first compound 2 µM): 1.2
relative viability ([15]; first compound 6.325 µM): 1.08
relative viability ([15]; first compound 20 µM): 0.127
relative viability ([16]; first compound 0.2 µM): 1.09
relative viability ([16]; first compound 0.6325 µM): 1.08
relative viability ([16]; first compound 2 µM): 1.08
relative viability ([16]; first compound 6.325 µM): 0.779
relative viability ([16]; first compound 20 µM): 0.82
relative viability ([17]; first compound 0.2 µM): 0.959
relative viability ([17]; first compound 0.6325 µM): 1.01
relative viability ([17]; first compound 2 µM): 0.961
relative viability ([17]; first compound 6.325 µM): 0.788
relative viability ([17]; first compound 20 µM): 0.358
relative viability ([18]; first compound 0.2 µM): 0.721
relative viability ([18]; first compound 0.6325 µM): 0.353
relative viability ([18]; first compound 2 µM): 0.684
relative viability ([18]; first compound 6.325 µM): 0.401
relative viability ([18]; first compound 20 µM): 0.184
relative viability ([19]; first compound 0.2 µM): 0.986
relative viability ([19]; first compound 0.6325 µM): 0.791
relative viability ([19]; first compound 2 µM): 1.03
relative viability ([19]; first compound 6.325 µM): 0.826
relative viability ([19]; first compound 20 µM): 0.634
relative viability ([20]; first compound 0.2 µM): 1.08
relative viability ([20]; first compound 2 µM): 0.702
relative viability ([20]; first compound 6.325 µM): 0.851
relative viability ([20]; first compound 20 µM): 0.167
